{
  "source": "patent US20200239398A1",
  "about": "“METHYLENE-CYCLOALKYLACETATE DERIVATIVES AND THEIR USE IN TREATMENT OF NEUROTROPIC CONDITIONS” (Yissum Research Development Company of The Hebrew …, priority 2018, published 2020)",
  "key": {"[1]": {"system": "spinal cord motor neurons", "assay": "Neurite outgrowth in adult rat spinal cord primary cultures", "type": "cell-based", "details": "10 μM HU-MCA-13 for 7 days", "experimental": "To study the effect of HU-MCA-13 on adult rat spinal cord primary cultures in vitro, a purification procedure was developed that yields highly enriched motor neurons cultures. Spinal cord motor neuron cultures are an important tool for the study of mechanisms involved in motor neuron survival, degeneration and regeneration, motor neuron disorders such as amyotrophic lateral sclerosis or spinal muscular atrophy as well as in spinal cord injury. This bioassay was performed using vehicle (1% DMSO) DMEM negative control and 10 μM HU-MCA-13, tested compound. Briefly, dissected pieces of adult rat spinal cord tissue were maintained in phosphate-buffered saline (PBS) without Ca^2+ and Mg^2+ and pooled together and transferred to an enzymatic dissociation media containing 20 IU/ml papain in Earle's balanced salt solution (Worthington Biochemical, Freehold, N.J.) and incubated for 30 min at 37° C. After enzymatic dissociation, the papain solution was aspirated and the tissue was mechanically triturated with a fire-polished Pasteur pipette in complete media [Neurobasal Medium with B-27 supplement (Gibco, Grand Island, N.Y.), 100 IU/ml penicillin, […], 3.3 μg/ml aphidicolin, 0.5 mM glutamate] containing 2000 IU/ml DNase and 10-mg/ml protease inhibitors. Single-cell suspensions in complete media was plated on pre-coated collagen IV/laminin mixture-coated 96-well plates (Becton-Dickinson, Bedford, Mass.) at a density of 1.0×10^4 cells/well. The spinal cord motor neurons (red arrows) and accessory Schwann cells (orange) were maintained for one day in culture and then exposed to 1% DMSO-DMEM negative control or 10 μM HU-MCA-13 for 7 days. The cultures were photographed, and Image analysis was performed. Neurite outgrowth was measured and quantified as for PC12 cultures, focusing on two parameters: a. SUM-total area covered by neurite outgrowths; b. mean length of a neurite (microns)."}, "[2]": {"biological_target": "Adenosine Receptor A2A (ADORA2A) (Homo sapiens, UniProt P29274)", "sequence (P29274 whole entry)": "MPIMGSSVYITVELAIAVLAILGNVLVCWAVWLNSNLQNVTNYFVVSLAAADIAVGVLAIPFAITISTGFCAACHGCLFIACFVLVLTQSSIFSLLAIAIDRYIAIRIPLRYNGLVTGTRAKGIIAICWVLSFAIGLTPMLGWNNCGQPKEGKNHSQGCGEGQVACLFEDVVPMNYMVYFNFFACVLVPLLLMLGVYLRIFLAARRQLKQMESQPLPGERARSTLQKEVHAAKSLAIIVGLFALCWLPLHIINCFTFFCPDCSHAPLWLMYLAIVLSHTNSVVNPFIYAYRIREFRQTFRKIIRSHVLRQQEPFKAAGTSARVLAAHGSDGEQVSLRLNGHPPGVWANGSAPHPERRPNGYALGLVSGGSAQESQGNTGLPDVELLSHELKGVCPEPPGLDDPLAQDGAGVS", "assay": "SAFETYscan ADORA2A Calcium Flux", "type": "cell-based", "details": "10 μM HU-MCA-13, read-out: Maximal Response"}, "[3]": {"biological_target": "T1, Adrenergic Receptor α2A (ADRA2A) (Homo sapiens, UniProt P08913)", "T1 sequence (P08913 1-465)": "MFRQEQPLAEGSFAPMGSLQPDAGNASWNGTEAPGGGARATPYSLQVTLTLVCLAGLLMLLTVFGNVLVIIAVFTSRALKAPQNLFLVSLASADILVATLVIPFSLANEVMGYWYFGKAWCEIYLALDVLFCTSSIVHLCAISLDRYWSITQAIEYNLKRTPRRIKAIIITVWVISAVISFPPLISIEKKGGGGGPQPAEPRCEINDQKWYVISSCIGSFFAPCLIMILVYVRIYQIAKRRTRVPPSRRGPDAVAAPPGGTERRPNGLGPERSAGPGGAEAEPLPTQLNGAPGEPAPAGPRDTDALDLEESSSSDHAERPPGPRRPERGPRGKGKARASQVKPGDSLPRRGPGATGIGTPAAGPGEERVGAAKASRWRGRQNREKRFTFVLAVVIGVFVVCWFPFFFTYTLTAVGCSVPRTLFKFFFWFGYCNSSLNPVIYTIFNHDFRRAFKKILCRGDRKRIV", "assay": "SAFETYscan ADRA2A cAMP", "type": "cell-based", "details": "10 μM HU-MCA-13"}, "[4]": {"biological_target": "Muscarinic acetylcholine Receptor M1 (CHRM1) (Homo sapiens, UniProt P11229)", "sequence (P11229 whole entry)": "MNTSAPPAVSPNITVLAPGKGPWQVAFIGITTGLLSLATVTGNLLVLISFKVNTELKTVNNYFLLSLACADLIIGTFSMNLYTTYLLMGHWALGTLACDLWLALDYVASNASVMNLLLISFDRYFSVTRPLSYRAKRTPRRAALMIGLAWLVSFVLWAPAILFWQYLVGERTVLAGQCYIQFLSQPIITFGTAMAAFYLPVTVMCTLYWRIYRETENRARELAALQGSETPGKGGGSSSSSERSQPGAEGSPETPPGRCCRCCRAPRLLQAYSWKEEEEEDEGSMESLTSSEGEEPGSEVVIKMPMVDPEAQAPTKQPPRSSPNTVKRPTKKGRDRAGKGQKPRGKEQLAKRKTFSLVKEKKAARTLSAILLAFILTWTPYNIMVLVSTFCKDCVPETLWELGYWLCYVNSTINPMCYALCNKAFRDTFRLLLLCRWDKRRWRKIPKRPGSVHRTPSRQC", "assay": "cell-based", "details": "10 μM HU-MCA-13, read-out: Maximal Response"}, "[5]": {"biological_target": "Dopamine Receptor D1 (DRD1) (Homo sapiens, UniProt P21728)", "sequence (P21728 whole entry)": "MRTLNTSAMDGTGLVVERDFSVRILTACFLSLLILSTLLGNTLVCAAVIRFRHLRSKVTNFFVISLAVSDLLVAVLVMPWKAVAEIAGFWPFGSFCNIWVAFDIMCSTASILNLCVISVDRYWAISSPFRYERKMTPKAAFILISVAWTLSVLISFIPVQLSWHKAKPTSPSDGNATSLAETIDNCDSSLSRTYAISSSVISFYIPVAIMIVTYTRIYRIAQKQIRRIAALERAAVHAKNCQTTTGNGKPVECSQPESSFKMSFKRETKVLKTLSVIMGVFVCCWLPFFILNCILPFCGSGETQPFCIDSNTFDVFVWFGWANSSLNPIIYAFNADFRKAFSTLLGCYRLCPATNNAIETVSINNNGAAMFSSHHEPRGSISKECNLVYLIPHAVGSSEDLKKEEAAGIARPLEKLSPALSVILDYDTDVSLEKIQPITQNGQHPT", "assay": "SAFETYscan DRD1 cAMP", "type": "cell-based", "details": "10 μM HU-MCA-13"}, "[6]": {"biological_target": "5-Hydroxytryptamine (Serotonin) Receptor 1A (HTR1A) (Homo sapiens, UniProt P08908)", "sequence (P08908 whole entry)": "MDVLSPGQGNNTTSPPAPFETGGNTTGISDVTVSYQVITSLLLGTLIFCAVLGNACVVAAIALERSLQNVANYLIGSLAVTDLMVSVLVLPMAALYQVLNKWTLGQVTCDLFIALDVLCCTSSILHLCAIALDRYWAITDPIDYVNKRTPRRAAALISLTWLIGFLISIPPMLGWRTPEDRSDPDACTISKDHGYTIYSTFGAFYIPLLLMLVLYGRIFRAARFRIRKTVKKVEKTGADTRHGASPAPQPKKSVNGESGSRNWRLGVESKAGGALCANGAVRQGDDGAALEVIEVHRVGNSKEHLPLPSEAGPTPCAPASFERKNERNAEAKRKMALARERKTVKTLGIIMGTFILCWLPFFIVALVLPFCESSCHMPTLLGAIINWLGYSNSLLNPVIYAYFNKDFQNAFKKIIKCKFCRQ", "assay": "SAFETYscan HTR1A cAMP", "type": "cell-based", "details": "10 μM HU-MCA-13"}, "[7]": {"biological_target": "5-Hydroxytryptamine (Serotonin) Receptor 1B (HTR1B) (Homo sapiens, UniProt P28222)", "sequence (P28222 whole entry)": "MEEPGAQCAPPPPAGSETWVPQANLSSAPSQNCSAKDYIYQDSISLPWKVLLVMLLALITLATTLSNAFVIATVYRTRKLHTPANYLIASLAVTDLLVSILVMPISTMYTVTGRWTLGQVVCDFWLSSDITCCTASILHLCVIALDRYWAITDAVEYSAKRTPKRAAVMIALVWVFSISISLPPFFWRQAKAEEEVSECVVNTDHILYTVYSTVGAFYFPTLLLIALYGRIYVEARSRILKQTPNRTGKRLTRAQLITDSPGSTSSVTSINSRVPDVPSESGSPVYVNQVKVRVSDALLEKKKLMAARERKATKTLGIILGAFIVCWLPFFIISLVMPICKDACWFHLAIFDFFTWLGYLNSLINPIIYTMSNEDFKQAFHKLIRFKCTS", "assay": "SAFETYscan HTR1B cAMP", "type": "cell-based", "details": "10 μM HU-MCA-13, read-out: Maximal Response"}, "[8]": {"biological_target": "5-Hydroxytryptamine (Serotonin) Receptor 2A (HTR2A) (Homo sapiens, UniProt P28223)", "assay": "SAFETYscan HTR2A Calcium Flux", "type": "cell-based", "details": "10 μM HU-MCA-13, read-out: Maximal Response"}, "[9]": {"biological_target": "5-Hydroxytryptamine (Serotonin) Receptor 2B (HTR2B) (Homo sapiens, UniProt P41595)", "sequence (P41595 whole entry)": "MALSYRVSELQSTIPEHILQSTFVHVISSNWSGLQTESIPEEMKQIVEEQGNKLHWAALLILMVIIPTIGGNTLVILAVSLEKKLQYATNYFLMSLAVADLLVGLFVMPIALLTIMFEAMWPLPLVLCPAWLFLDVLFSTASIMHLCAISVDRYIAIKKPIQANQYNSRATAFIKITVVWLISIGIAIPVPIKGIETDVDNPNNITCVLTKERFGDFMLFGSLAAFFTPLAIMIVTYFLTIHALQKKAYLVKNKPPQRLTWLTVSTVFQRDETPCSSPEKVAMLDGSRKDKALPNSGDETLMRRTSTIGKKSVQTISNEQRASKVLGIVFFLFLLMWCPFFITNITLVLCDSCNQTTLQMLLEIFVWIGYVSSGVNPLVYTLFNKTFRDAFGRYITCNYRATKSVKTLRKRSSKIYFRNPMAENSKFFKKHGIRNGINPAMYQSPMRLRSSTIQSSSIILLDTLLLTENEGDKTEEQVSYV", "assay": "SAFETYscan HTR2B Calcium Flux", "type": "cell-based", "details": "10 μM HU-MCA-13, read-out: Maximal Response"}, "[10]": {"biological_target": "Opioid Receptor Delta 1 (OPRD1) (Homo sapiens, UniProt P41143)", "sequence (P41143 whole entry)": "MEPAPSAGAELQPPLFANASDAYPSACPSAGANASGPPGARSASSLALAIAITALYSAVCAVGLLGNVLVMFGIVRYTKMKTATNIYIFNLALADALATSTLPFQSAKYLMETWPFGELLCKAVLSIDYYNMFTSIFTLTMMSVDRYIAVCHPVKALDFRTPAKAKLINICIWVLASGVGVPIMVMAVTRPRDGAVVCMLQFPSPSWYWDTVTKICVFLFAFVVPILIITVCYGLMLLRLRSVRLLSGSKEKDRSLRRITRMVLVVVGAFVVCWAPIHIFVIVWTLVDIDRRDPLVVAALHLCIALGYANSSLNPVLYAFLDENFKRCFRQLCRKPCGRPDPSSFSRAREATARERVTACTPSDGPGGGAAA", "assay": "SAFETYscan OPRD1 cAMP", "type": "cell-based", "details": "10 μM HU-MCA-13, read-out: Maximal Response"}, "[11]": {"biological_target": "Opioid Receptor Kappa 1 (OPRK1) (Homo sapiens, UniProt P41145)", "sequence (P41145 whole entry)": "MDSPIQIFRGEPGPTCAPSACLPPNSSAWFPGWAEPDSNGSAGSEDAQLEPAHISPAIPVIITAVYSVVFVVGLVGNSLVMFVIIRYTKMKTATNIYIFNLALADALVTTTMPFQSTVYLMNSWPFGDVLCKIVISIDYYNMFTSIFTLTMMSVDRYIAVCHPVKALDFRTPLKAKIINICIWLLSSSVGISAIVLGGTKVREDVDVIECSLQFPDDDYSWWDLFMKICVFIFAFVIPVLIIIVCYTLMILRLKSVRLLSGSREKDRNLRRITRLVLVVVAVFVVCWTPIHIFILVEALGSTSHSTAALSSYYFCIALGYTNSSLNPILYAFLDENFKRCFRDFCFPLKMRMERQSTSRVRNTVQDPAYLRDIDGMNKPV", "assay": "SAFETYscan OPRK1 cAMP", "type": "cell-based", "details": "10 μM HU-MCA-13, read-out: Maximal Response"}, "[12]": {"biological_target": "T2, A tetrodotoxin-resistant voltage-gated sodium channel (NAVI1.5) (Homo sapiens, UniProt Q14524)", "T2 construct": "DiscoverX (SAFETYscan contract panel)", "assay": "cell-based", "details": "read-out: Maximal Response"}, "[13]": {"biological_target": "T3, Vascular endothelial growth factor receptor 2 (KDR tyrosine kinase) (VEGFR2) (Homo sapiens, UniProt P35968)", "T3 construct": "DiscoverX (KINOMEscan)", "assay": "SAFETYscan VEGFR2 kinase Binding", "details": "Inhibitor mode, 10 μM HU-MCA-13, read-out: Maximal Response"}, "[14]": {"biological_target": "T4, Cyclooxygenase 2 (COX 2) (Homo sapiens, UniProt P35354)", "T4 construct": "DiscoverX (SAFETYscan contract panel)", "T4 sequence (P35354 18-604)": "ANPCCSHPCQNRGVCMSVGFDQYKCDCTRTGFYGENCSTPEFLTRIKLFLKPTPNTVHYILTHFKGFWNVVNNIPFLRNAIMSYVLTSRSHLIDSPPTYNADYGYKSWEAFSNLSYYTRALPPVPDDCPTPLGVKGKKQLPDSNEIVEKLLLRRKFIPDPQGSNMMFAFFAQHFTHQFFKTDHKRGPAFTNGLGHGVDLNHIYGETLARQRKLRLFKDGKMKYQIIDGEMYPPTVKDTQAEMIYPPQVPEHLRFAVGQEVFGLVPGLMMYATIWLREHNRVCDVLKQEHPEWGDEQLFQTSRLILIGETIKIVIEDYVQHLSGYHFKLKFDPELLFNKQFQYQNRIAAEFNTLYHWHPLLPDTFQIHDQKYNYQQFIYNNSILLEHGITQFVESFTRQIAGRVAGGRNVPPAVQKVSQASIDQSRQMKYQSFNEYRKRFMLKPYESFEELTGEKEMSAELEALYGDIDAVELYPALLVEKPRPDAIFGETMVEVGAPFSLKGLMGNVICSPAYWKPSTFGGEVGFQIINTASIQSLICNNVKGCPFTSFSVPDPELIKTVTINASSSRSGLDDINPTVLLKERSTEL", "assay": "SAFETYscan COX 2 Enzymatic", "type": "biochemical", "details": "Inhibitor mode; 10 μM HU-MCA-13; read-out: Maximal Response"}, "[15]": {"biological_target": "T5, cGMP-inhibited cyclic nucleotide phosphodiesterase 3A (PDE3A) (Homo sapiens, UniProt Q14432)", "T5 construct": "DiscoverX (SAFETYscan contract panel)", "assay": "SAFETYscan PDE3A Enzymatic", "type": "biochemical", "details": "Inhibitor mode; 10 μM HU-MCA-13; read-out: Maximal Response"}, "[16]": {"biological_target": "T6, Dopamine transporter (DAT) (Homo sapiens, UniProt Q01959)", "T6 construct": "DiscoverX (SAFETYscan contract panel)", "T6 sequence (Q01959 whole entry)": "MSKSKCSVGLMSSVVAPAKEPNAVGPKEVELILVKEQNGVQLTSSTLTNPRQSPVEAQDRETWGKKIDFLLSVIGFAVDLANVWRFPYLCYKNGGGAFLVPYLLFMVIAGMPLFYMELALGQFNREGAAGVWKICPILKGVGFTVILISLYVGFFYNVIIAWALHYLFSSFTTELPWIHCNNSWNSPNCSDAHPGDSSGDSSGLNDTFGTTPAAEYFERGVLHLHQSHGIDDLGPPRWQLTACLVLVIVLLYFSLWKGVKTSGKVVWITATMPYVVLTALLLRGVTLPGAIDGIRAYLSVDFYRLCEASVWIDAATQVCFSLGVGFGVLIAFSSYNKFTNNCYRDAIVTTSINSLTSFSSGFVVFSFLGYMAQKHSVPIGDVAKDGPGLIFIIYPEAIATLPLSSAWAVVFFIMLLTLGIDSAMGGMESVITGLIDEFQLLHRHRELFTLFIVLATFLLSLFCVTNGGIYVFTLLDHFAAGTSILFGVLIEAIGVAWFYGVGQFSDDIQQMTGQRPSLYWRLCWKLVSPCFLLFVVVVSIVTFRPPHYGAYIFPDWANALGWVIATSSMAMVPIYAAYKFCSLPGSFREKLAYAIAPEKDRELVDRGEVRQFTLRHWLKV", "assay": "SAFETYscan DAT Transporter", "type": "cell-based", "details": "Blocker mode; 10 μM HU-MCA-13; read-out: Maximal Response"}, "[17]": {"details": "read-out: Maximal Response, Agonist mode"}, "[18]": {"details": "read-out: Maximal Response, Antagonist mode"}},
  "note": "Where two headings read alike, the source gives them in different places.",
  "data": [
    {"compound": "C=CCC1CCC[C@@H](CCC(=O)O)C1=C", "note": "(some centres unmarked) [Compound 13]", "values": [
      {"measurement": "mean length of the neurite", "setting": "[1]", "result": 350, "unit": "micrometer"},
      {"measurement": "neurotropic effect versus control medium", "setting": "[1]", "result": "four folds neurotropic effect"},
      {"measurement": "total (SUM) neurite length", "setting": "[1]", "result": 600, "unit": "micrometer"},
      {"measurement": "Emax", "setting": "[2]; Agonist mode", "result": 0, "unit": "%"},
      {"measurement": "Emax", "setting": "[2]; Antagonist mode", "result": 4.09, "unit": "%"},
      {"measurement": "Maximal Response", "setting": "[3]; Agonist mode", "result": 24.55, "unit": "%"},
      {"measurement": "Emax", "setting": "[3]; Antagonist mode, read-out: Maximal Response", "result": 0, "unit": "%"},
      {"measurement": "Emax", "setting": "[3]; [17]", "result": 24.5, "unit": "%"},
      {"measurement": "Emax", "setting": "[4]; Agonist mode", "result": 0, "unit": "%"},
      {"measurement": "Emax", "setting": "[4]; Antagonist mode", "result": 7.43, "unit": "%"},
      {"measurement": "Emax", "setting": "[5]; [17]", "result": 0, "unit": "%"},
      {"measurement": "Emax", "setting": "[5]; [18]", "result": 14.3, "unit": "%"},
      {"measurement": "Emax", "setting": "[6]; [17]", "result": 7.66, "unit": "%"},
      {"measurement": "Emax", "setting": "[6]; [18]", "result": 0, "unit": "%"},
      {"measurement": "Emax", "setting": "[7]; Agonist mode", "result": 10.5, "unit": "%"},
      {"measurement": "Emax", "setting": "[7]; Antagonist mode", "result": 0, "unit": "%"},
      {"measurement": "Emax", "setting": "[8]; Agonist mode", "result": 1.13, "unit": "%"},
      {"measurement": "Emax", "setting": "[8]; Antagonist mode", "result": 0, "unit": "%"},
      {"measurement": "Emax", "setting": "[9]; Agonist mode", "result": 0, "unit": "%"},
      {"measurement": "Emax", "setting": "[9]; Antagonist mode", "result": 0.13, "unit": "%"},
      {"measurement": "Emax", "setting": "[10]; Agonist mode", "result": 6.34, "unit": "%"},
      {"measurement": "Emax", "setting": "[10]; Antagonist mode", "result": 0, "unit": "%"},
      {"measurement": "Emax", "setting": "[11]; Agonist mode", "result": 7.89, "unit": "%"},
      {"measurement": "Emax", "setting": "[11]; Antagonist mode", "result": 0, "unit": "%"},
      {"measurement": "Emax", "setting": "[12]", "result": 0, "unit": "%"},
      {"measurement": "Emax", "setting": "[13]", "result": 21.7, "unit": "%"},
      {"measurement": "Emax", "setting": "[14]", "result": 7.99, "unit": "%"},
      {"measurement": "Emax", "setting": "[15]", "result": 3.21, "unit": "%"},
      {"measurement": "Emax", "setting": "[16]", "result": 0, "unit": "%"}
    ]}
  ]
}
